According to ChEMBL document CHEMBL2203036, “Discovery of 1-[2-(2,4-dimethylphenylsulfanyl)phenyl]piperazine (Lu AA21004): a novel multimodal compound for the treatment of major depressive disorder” (J Med Chem, 2011):
The source made the active and inactive calls. The rule behind the calls is not given here.

How the values were obtained:
Rattus norvegicus [1] = assay: Target occupancy at SERT in Harlan rat at 5 mg/kg, sc administered QD for 3 days relative to vehicle-treated control; assay type: functional; conditions: route subcutaneous
Rattus norvegicus [2] = assay: Target occupancy at SERT in Harlan rat at 10 mg/kg, sc administered QD for 3 days relative to vehicle-treated control; assay type: functional; conditions: route subcutaneous
[3] = target: T1, 5-hydroxytryptamine receptor 7 (Homo sapiens, UniProt P34969); assay: Antagonist activity at human 5HT7 receptor expressed in HEK-CNG cells assessed as effect on cAMP production by fluorescence based assay; assay type: functional, cell-based
T1 sequence (P34969 whole entry): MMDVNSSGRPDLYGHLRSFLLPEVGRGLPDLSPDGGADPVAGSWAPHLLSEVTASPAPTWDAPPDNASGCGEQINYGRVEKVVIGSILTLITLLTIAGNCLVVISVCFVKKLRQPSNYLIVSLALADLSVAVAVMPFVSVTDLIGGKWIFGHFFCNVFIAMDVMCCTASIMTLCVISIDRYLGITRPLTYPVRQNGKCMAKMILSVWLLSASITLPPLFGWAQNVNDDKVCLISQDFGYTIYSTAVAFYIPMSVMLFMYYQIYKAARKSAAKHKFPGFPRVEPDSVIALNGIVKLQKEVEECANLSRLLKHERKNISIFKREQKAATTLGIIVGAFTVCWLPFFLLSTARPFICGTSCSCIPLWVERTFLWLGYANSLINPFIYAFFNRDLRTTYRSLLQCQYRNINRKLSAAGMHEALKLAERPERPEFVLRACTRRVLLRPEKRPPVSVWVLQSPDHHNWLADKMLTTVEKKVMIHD

[4] = target: T1, 5-hydroxytryptamine receptor 7; assay: Binding affinity to human 5HT7 receptor
[5] = target: 5-hydroxytryptamine receptor 6 (Homo sapiens, UniProt P50406); assay: Binding affinity to human 5HT6 receptor
Sequence of 5-hydroxytryptamine receptor 6 (P50406 whole entry): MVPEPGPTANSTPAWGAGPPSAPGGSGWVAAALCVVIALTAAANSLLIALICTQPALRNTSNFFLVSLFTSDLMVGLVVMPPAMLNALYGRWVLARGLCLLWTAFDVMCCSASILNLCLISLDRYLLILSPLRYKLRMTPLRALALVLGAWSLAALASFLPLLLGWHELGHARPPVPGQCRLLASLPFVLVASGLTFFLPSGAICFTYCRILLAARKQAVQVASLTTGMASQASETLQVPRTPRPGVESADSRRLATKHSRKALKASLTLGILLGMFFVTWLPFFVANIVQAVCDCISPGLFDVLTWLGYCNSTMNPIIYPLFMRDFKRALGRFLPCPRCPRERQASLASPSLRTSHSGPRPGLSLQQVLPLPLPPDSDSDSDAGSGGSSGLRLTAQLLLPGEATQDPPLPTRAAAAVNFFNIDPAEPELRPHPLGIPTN

[6] = target: 5-hydroxytryptamine receptor 2C (Homo sapiens, UniProt P28335); assay: Binding affinity to human 5HT2C receptor
Sequence of 5-hydroxytryptamine receptor 2C (P28335 whole entry): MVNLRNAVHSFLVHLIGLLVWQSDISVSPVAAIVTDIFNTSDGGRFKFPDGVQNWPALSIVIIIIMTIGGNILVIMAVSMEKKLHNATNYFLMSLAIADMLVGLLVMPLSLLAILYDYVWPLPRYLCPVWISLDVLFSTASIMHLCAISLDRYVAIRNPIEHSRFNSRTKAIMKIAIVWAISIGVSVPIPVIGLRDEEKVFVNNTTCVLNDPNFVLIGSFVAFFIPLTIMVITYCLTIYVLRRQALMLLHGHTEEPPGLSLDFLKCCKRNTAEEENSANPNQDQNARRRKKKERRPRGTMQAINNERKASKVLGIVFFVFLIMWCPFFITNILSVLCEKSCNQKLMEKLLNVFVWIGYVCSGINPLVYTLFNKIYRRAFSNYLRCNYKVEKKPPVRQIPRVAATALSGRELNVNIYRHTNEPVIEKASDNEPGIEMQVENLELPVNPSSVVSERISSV

[7] = target: Beta-2 adrenergic receptor (Homo sapiens, UniProt P07550); assay: Binding affinity to human beta 2 adrenergic receptor
Sequence of Beta-2 adrenergic receptor (P07550 whole entry): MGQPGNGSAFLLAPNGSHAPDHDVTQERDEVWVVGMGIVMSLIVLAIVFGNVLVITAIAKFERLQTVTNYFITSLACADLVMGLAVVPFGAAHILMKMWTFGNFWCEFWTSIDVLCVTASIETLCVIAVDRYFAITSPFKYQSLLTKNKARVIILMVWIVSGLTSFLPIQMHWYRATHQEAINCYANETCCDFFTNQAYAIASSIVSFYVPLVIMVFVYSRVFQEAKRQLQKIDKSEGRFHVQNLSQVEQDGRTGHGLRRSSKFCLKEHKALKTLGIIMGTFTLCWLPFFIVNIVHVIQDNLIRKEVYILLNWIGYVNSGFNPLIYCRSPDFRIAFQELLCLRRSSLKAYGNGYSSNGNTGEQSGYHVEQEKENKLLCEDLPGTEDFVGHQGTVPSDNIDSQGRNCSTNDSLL

Histamine H1 receptor = Histamine H1 receptor (Homo sapiens, UniProt P35367); assay: Binding affinity to human histamine H1 receptor
[8] = target: Sodium-dependent serotonin transporter (Homo sapiens, UniProt P31645); assay: Binding affinity to human SERT
Sequence of Sodium-dependent serotonin transporter (P31645 whole entry): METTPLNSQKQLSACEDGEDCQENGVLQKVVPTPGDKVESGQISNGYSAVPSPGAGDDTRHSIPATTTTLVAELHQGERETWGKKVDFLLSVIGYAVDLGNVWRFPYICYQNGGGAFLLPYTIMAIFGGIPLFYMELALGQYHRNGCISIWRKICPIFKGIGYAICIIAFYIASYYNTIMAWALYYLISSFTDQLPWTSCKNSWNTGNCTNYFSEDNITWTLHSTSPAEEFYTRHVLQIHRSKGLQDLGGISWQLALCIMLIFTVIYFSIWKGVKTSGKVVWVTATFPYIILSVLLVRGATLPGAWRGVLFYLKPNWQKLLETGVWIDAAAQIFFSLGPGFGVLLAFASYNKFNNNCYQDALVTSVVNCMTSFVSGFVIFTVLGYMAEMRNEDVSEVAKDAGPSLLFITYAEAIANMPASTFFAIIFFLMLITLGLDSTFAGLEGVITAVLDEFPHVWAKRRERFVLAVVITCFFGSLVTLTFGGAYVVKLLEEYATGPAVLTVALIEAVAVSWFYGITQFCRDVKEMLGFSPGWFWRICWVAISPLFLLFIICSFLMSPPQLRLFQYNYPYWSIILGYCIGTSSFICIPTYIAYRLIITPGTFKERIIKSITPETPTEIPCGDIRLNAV

[9] = target: T2, 5-hydroxytryptamine receptor 3A (Homo sapiens, UniProt P46098); assay: Antagonist activity at human 5HT3A receptor expressed in xenopus oocytes assessed as inhibition of 5HT-induced effect by electrophysiological method; assay type: functional, cell-based, Oocyte
T2 sequence (P46098 whole entry): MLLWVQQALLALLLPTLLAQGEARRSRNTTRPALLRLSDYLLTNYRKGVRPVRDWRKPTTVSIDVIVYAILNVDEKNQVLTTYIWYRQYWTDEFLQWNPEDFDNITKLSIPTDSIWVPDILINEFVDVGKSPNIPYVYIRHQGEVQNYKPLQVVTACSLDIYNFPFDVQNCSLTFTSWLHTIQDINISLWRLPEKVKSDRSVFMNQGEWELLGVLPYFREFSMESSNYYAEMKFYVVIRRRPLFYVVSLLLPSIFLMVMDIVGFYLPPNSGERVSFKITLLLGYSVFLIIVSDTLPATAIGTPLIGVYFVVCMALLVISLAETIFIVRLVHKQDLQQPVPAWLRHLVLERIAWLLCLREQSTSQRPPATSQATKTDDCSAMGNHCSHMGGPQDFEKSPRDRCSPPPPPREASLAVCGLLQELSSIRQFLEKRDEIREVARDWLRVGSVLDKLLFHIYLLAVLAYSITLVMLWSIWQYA

[10] = Oral bioavailability in rat at 2 mg/kg; assay type: ADME, organism-based; conditions: in vivo
Cytochrome P450 2C9 = Cytochrome P450 2C9 (Homo sapiens, UniProt P11712); assay: Inhibition of human recombinant CYP2C9 using dibenzylfluorescein after 45 mins by fluorescence spectrophotometric analysis; assay type: ADME
Sequence of Cytochrome P450 2C9 (P11712 whole entry): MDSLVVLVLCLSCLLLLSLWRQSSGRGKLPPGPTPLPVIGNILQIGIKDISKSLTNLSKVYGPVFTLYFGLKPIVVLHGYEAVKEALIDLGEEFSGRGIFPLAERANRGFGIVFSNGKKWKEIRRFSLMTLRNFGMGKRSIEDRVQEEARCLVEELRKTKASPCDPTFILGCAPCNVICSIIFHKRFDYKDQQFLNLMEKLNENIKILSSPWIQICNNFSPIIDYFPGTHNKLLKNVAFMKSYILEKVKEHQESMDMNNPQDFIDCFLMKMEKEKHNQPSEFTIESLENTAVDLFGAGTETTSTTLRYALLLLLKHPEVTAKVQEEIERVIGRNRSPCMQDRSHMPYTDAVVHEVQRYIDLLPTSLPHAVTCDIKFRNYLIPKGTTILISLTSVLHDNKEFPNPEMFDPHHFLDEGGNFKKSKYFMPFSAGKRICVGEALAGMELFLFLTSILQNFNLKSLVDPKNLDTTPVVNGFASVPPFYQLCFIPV

Liver microsomes = assay: Intrinsic clearance in human liver microsomes at 1 uM after 60 mins by LC-MS/MS analysis; assay type: ADME, Microsome; conditions: 1 h
[11] = target: Sodium-dependent dopamine transporter (Rattus norvegicus, UniProt P23977); assay: Inhibition of DAT-mediated [3H]DA in rat synaptosomes by scintillation counting; assay type: subcellular, Brain
Sequence of Sodium-dependent dopamine transporter (P23977 whole entry): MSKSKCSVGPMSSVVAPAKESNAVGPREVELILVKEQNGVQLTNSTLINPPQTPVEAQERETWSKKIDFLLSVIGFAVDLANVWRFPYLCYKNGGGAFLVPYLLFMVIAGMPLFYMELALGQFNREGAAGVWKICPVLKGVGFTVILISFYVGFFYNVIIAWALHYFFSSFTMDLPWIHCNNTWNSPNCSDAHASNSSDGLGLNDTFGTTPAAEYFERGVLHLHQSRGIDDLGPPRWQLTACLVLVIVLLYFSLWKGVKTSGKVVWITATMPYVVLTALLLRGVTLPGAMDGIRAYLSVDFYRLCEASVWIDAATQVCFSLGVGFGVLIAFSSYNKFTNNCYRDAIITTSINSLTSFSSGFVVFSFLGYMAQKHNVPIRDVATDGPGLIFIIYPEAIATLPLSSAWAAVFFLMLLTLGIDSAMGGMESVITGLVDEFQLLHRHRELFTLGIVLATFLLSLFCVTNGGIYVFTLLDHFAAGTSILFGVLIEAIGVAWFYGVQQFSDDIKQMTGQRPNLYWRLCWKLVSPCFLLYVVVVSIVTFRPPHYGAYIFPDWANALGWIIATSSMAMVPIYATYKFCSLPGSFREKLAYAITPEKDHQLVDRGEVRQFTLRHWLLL

[12] = target: T2, 5-hydroxytryptamine receptor 3A; assay: Binding affinity to human 5HT3A receptor
[13] = target: T2, 5-hydroxytryptamine receptor 3A; assay: Displacement of [3H]granisetron from human 5HT3A receptor expressed in HEK293 cells by filter binding assay; assay type: cell-based
[14] = target: Sodium-dependent noradrenaline transporter (Homo sapiens) (UniProt P23975); assay: Inhibition of human NET at 1 uM
Sequence of Sodium-dependent noradrenaline transporter (Homo sapiens) (P23975 whole entry): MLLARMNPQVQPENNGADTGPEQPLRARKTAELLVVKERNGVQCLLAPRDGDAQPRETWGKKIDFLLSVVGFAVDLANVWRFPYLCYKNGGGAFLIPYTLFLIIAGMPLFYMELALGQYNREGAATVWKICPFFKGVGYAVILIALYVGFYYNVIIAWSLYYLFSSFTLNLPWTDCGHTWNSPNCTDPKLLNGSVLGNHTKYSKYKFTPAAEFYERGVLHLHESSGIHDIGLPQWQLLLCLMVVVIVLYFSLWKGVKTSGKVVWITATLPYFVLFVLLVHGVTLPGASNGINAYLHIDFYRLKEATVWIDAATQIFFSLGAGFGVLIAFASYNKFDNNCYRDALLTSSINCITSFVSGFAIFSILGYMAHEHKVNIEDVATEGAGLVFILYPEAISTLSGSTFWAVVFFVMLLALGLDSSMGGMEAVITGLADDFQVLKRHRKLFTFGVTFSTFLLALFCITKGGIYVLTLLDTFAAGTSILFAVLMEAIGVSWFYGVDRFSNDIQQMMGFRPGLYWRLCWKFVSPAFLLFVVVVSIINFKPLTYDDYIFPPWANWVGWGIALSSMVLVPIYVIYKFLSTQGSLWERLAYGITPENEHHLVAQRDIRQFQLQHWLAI

[15] = target: Melanocortin receptor 4 (Homo sapiens) (UniProt P32245); assay: Inhibition of human MC4 receptor at 1 uM
Sequence of Melanocortin receptor 4 (Homo sapiens) (P32245 whole entry): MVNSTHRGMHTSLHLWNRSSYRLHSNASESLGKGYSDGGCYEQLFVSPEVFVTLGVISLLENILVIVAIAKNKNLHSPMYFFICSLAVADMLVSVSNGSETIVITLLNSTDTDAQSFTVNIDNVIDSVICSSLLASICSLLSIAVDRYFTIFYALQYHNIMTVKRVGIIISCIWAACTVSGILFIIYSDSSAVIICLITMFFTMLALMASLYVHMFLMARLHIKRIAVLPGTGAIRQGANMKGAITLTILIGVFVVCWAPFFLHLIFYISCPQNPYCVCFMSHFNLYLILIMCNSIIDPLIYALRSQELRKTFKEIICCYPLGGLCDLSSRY

[16] = target: T3, 5-hydroxytryptamine receptor 3A (Homo sapiens) (UniProt P46098); assay: Inhibition of human 5HT3A receptor at 1 uM
T3 sequence (whole entry): T2 sequence (P46098 whole entry)

[17] = target: 5-hydroxytryptamine receptor 1B (Homo sapiens, UniProt P28222); assay: Inhibition of human 5HT1B receptor at 1 uM
[18] = target: T3, 5-hydroxytryptamine receptor 3A (Homo sapiens); assay: Agonist activity at human 5HT3A receptor expressed in xenopus oocytes by electrophysiological method relative to 5HT; conditions: Oocyte
[19] = target: 5-hydroxytryptamine receptor 3A (Rattus norvegicus) (UniProt P35563); assay: Agonist activity at rat 5HT3A receptor expressed in xenopus oocytes at 0.1 to 100000 nM by electrophysiological method; conditions: Oocyte
Sequence of 5-hydroxytryptamine receptor 3A (Rattus norvegicus) (P35563 whole entry): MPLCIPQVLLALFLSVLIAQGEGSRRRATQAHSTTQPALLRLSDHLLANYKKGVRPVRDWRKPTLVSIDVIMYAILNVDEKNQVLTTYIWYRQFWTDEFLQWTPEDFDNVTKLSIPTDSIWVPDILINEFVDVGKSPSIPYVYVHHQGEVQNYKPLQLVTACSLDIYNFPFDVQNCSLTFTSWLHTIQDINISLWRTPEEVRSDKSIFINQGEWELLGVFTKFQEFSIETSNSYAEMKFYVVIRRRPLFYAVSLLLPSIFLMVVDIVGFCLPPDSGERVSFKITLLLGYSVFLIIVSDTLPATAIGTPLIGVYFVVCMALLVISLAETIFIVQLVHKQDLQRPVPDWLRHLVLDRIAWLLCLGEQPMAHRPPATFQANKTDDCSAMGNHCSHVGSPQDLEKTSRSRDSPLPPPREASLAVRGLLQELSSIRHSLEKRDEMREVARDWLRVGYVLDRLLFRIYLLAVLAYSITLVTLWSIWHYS

[20] = target: T3, 5-hydroxytryptamine receptor 3A (Homo sapiens); assay: Agonist activity at human 5HT3A receptor expressed in xenopus oocytes by electrophysiological method in presence of ondansetron; conditions: Oocyte
Rattus norvegicus [21] = assay: Antidepression activity in Harlan rat assessed as increase in extracellular 5HT level in ventral hippocampus region at 2.5 to 10 mg/kg, sc by microdialysis method; conditions: TDE = time-dependent effect
Rattus norvegicus [22] = assay: Antidepression activity in sc dosed Harlan rat assessed as increase in extracellular 5HT level in ventral hippocampus region measured up to 180 mins by microdialysis method
Rattus norvegicus [23] = assay: Antidepression activity in Harlan rat assessed as increase in extracellular 5HT level in ventral hippocampus region at 2.5 mg/kg, sc measured from 60 to 120 mins by microdialysis method
Rattus norvegicus [24] = assay: Antidepression activity in Harlan rat assessed as increase in extracellular 5HT level in ventral hippocampus region at 5 to 10 mg/kg, sc measured from 40 to 180 mins by microdialysis method
Rattus norvegicus [25] = assay: Antidepression activity in Harlan rat assessed as increase in extracellular 5HT level in medial prefrontal cortex region at 5 to 10 mg/kg, sc administered QD for 3 days by microdialysis method

With `Cc1ccc(Sc2ccccc2N2CCNCC2)c(C)c1.Cl` the Occ (Rattus norvegicus [1]) was 43%, the Occ (Rattus norvegicus [2]) was 57% and the Ki [3] was 450 nM. It also gave a Ki [4] of 19 nM, a Ki [5] of 330 nM and a Ki [6] of 180 nM. It also gave a Ki [7] of 560 nM, a Ki (Histamine H1 receptor) of 180 nM and a Ki [8] of 1.6 nM. The IC50 [9] was 12 nM, the bioavailability [10] was 16% and the IC50 (Cytochrome P450 2C9) was 39000 nM. For the same molecule, the CLH (Liver microsomes) was 0.5 L/min, the IC50 [11] was 890 nM and the Ki [12] was 3.7 nM. For the same molecule, the Ki [13] was 23 nM, the inhibition [14] was 88% and the inhibition [15] was 51%. It also gave an inhibition [16] of 100%, an inhibition [17] of 100% and an Efficacy [18] of 64%. For the same molecule, the Activity [19] was “inactive”, the Activity [20] was “inactive” and the Activity (Rattus norvegicus [21]) was “tde”. For the same molecule, the Activity (Rattus norvegicus [22]) was “Dose-dependent effect”, the Activity (Rattus norvegicus [23]) was “Active” and the Activity (Rattus norvegicus [24]) was “Active”. The Activity (Rattus norvegicus [25]) was “Active”.
